US20060235076A1, “Medicinal composition for treating infection with drug-resistant staphylococcus aureus” (priority 2003, published 2006)

Experiments:
[1] = tested on: MRSA COL and MRSA Strain No. 5; assay: Potentiating effect of various gallates for antibacterial activity of oxacillin (MIC by broth microdilution method and FIC); type: cell-based, Staphylococcus aureus; conditions: for effect of the combination use with oxacillin by FIC values: COL Strain and Strain No. 5; for FIC value: combination with oxacillin
Procedure: According to the broth microdilution method defined by Japan Society of Chemotherapy, MIC was determined. CAMHA was prepared by adding 50 mg/l of Ca-ion, 25 mg/l of Mg-ion, and 2% of NaCl to MHB (Mueller-Hinton Broth), and it was used as a medium for use in the measurement of sensitivity. In 96-well microplates 100 μl of the medium for use in the measurement of sensitivity containing drugs was dispensed. The bacterial liquid was incubated at 37° C. overnight, diluted with saline and added to the plate so that the final concentration of the bacteria was 5×10^5 CFU/well. […] FIC (fractional inhibitory concentration) was calculated from the result and the potency of the effect of the combination use was evaluated.

[2] = tested on: MRSA; assay: Potentiating effect of galloyl quinic acid derivatives for the antibacterial activity of oxacillin (agar plate dilution method, MIC); type: cell-based, Staphylococcus aureus
Procedure: According to the agar plate dilution method defined by Japan Society of Chemotherapy, MIC (Minimum inhibitory concentration) was determined. CAMHA was prepared by adding 50 mg/l of Ca-ion, 25 mg/l of Mg-ion, and 2% of NaCl to Mueller-Hinton II Agar (MHA), and it was used as a medium for use in the measurement of sensitivity. The bacterial liquid was incubated at 37° C. overnight and diluted to 10^6 CFU/ml with saline.
It was confirmed that the known substances shown below were contained in “Tara” and their MICs were determined as described in example 2 with respect to the effects of the combination use with oxacillin

## catechin gallate
[1]
  effect of the combination use with oxacillin by FIC values: most potent
[1]; MRSA COL
  FIC value: <0.25
[1]; MRSA Strain No. 5
  FIC value: 0.064

## O=C(O[C@@H]1Cc2c(O)cc(O)cc2O[C@H]1c1cc(O)c(O)c(O)c1)c1cc(O)c(O)c(O)c1 [Gallocatechin gallate, gallocatechin gallate]
[1]
  effect of the combination use with oxacillin by FIC values: more potent effects of the combination use
[1]; MRSA COL
  FIC value: 0.281
[1]; MRSA Strain No. 5
  FIC value: 0.188

## O=C(OC1CC(O)(C(=O)O)CC(O)C1OC(=O)c1cc(O)c(O)c(O)c1)c1cc(O)c(O)c(O)c1 (stereo not drawn) [compound 4]
[2]; ATCC 6538, with 12.5 μg/ml of compound
  Oxacillin MIC: <0.5 µg/mL
[2]; ATCC 6538, with 25 μg/ml of compound
  Oxacillin MIC: <0.5 µg/mL
[2]; ATCC 6538, with 50 μg/ml of compound
  Oxacillin MIC: <0.5 µg/mL
[2]; MRSA 1, with 12.5 μg/ml of compound
  Oxacillin MIC: >256 µg/mL
[2]; MRSA 1, with 25 μg/ml of compound
  Oxacillin MIC: >256 µg/mL
[2]; MRSA 1, with 50 μg/ml of compound
  Oxacillin MIC: >256 µg/mL
[2]; MRSA 2, with 12.5 μg/ml of compound
  Oxacillin MIC: >256 µg/mL
[2]; MRSA 2, with 25 μg/ml of compound
  Oxacillin MIC: 256 µg/mL
[2]; MRSA 2, with 50 μg/ml of compound
  Oxacillin MIC: 256 µg/mL
[2]; MRSA 3, with 12.5 μg/ml of compound
  Oxacillin MIC: 256 µg/mL
[2]; MRSA 3, with 25 μg/ml of compound
  Oxacillin MIC: 256 µg/mL
[2]; MRSA 3, with 50 μg/ml of compound
  Oxacillin MIC: 128 µg/mL
[2]; MRSA 4, with 12.5 μg/ml of compound
  Oxacillin MIC: >256 µg/mL
[2]; MRSA 4, with 25 μg/ml of compound
  Oxacillin MIC: >256 µg/mL
[2]; MRSA 4, with 50 μg/ml of compound
  Oxacillin MIC: >256 µg/mL
[2]; MRSA 5, with 12.5 μg/ml of compound
  Oxacillin MIC: >256 µg/mL
[2]; MRSA 5, with 25 μg/ml of compound
  Oxacillin MIC: ≅256 μg/ml
[2]; MRSA 5, with 50 μg/ml of compound
  Oxacillin MIC: >256 µg/mL
[2]; MRSA 6, with 12.5 μg/ml of compound
  Oxacillin MIC: 256 µg/mL
[2]; MRSA 6, with 25 μg/ml of compound
  Oxacillin MIC: 256 µg/mL
[2]; MRSA 6, with 50 μg/ml of compound
  Oxacillin MIC: 128 µg/mL
[2]; MRSA 7, with 12.5 μg/ml of compound
  Oxacillin MIC: >256 µg/mL
[2]; MRSA 7, with 25 μg/ml of compound
  Oxacillin MIC: >256 µg/mL
[2]; MRSA 7, with 50 μg/ml of compound
  Oxacillin MIC: >256 µg/mL
[2]; MRSA 8, with 12.5 μg/ml of compound
  Oxacillin MIC: 256 µg/mL
[2]; MRSA 8, with 25 μg/ml of compound
  Oxacillin MIC: 128 µg/mL
[2]; MRSA 8, with 50 μg/ml of compound
  Oxacillin MIC: 128 µg/mL
[2]; MRSA 9, with 12.5 μg/ml of compound
  Oxacillin MIC: >256 µg/mL
[2]; MRSA 9, with 25 μg/ml of compound
  Oxacillin MIC: >256 µg/mL
[2]; MRSA 9, with 50 μg/ml of compound
  Oxacillin MIC: >256 µg/mL
[2]; MRSA 10, with 12.5 μg/ml of compound
  Oxacillin MIC: 128 µg/mL
[2]; MRSA 10, with 25 μg/ml of compound
  Oxacillin MIC: 128 µg/mL
[2]; MRSA 10, with 50 μg/ml of compound
  Oxacillin MIC: 128 µg/mL
[2]; MRSA 12, with 12.5 μg/ml of compound
  Oxacillin MIC: >256 µg/mL
[2]; MRSA 12, with 25 μg/ml of compound
  Oxacillin MIC: >256 µg/mL
[2]; MRSA 12, with 50 μg/ml of compound
  Oxacillin MIC: >256 µg/mL
[2]; MRSA 16, with 12.5 μg/ml of compound
  Oxacillin MIC: >256 µg/mL
[2]; MRSA 16, with 25 μg/ml of compound
  Oxacillin MIC: >256 µg/mL
[2]; MRSA 16, with 50 μg/ml of compound
  Oxacillin MIC: >256 µg/mL
[2]; MRSA 17, with 12.5 μg/ml of compound
  Oxacillin MIC: 256 µg/mL
[2]; MRSA 17, with 25 μg/ml of compound
  Oxacillin MIC: 256 µg/mL
[2]; MRSA 17, with 50 μg/ml of compound
  Oxacillin MIC: 256 µg/mL
[2]; MRSA 18, with 12.5 μg/ml of compound
  Oxacillin MIC: >256 µg/mL
[2]; MRSA 18, with 25 μg/ml of compound
  Oxacillin MIC: >256 µg/mL
[2]; MRSA 18, with 50 μg/ml of compound
  Oxacillin MIC: >256 µg/mL
[2]; MRSA 20, with 12.5 μg/ml of compound
  Oxacillin MIC: 32 µg/mL
[2]; MRSA 20, with 25 μg/ml of compound
  Oxacillin MIC: 16 µg/mL
[2]; MRSA 20, with 50 μg/ml of compound
  Oxacillin MIC: 16 µg/mL
[2]; MRSA 21, with 12.5 μg/ml of compound
  Oxacillin MIC: 128 µg/mL
[2]; MRSA 21, with 25 μg/ml of compound
  Oxacillin MIC: 128 µg/mL
[2]; MRSA 21, with 50 μg/ml of compound
  Oxacillin MIC: 64 µg/mL
[2]; MRSA 22, with 12.5 μg/ml of compound
  Oxacillin MIC: 64 µg/mL
[2]; MRSA 22, with 25 μg/ml of compound
  Oxacillin MIC: 64 µg/mL
[2]; MRSA 22, with 50 μg/ml of compound
  Oxacillin MIC: 64 µg/mL
[2]; MRSA COL, with 12.5 μg/ml of compound
  Oxacillin MIC: >256 µg/mL
[2]; MRSA COL, with 25 μg/ml of compound
  Oxacillin MIC: >256 µg/mL
[2]; MRSA COL, with 50 μg/ml of compound
  Oxacillin MIC: >256 µg/mL
[2]; MSSA 1003, with 12.5 μg/ml of compound
  Oxacillin MIC: <0.5 µg/mL
[2]; MSSA 1003, with 25 μg/ml of compound
  Oxacillin MIC: <0.5 µg/mL
[2]; MSSA 1003, with 50 μg/ml of compound
  Oxacillin MIC: <0.5 µg/mL
[2]; MSSA 1010, with 12.5 μg/ml of compound
  Oxacillin MIC: <0.5 µg/mL
[2]; MSSA 1010, with 25 μg/ml of compound
  Oxacillin MIC: <0.5 µg/mL
[2]; MSSA 1010, with 50 μg/ml of compound
  Oxacillin MIC: <0.5 µg/mL
[2]; MSSA 1032, with 12.5 μg/ml of compound
  Oxacillin MIC: <0.5 µg/mL
[2]; MSSA 1032, with 25 μg/ml of compound
  Oxacillin MIC: <0.5 µg/mL
[2]; MSSA 1032, with 50 μg/ml of compound
  Oxacillin MIC: <0.5 µg/mL
[2]; RN4220, with 12.5 μg/ml of compound
  Oxacillin MIC: <0.5 µg/mL
[2]; RN4220, with 25 μg/ml of compound
  Oxacillin MIC: <0.5 µg/mL
[2]; RN4220, with 50 μg/ml of compound
  Oxacillin MIC: <0.5 µg/mL
